The values that follow are results of earlier work, collected in patent US20210251559A1, “METHODS FOR DIAGNOSING, MONITORING AND TREATING NEUROLOGICAL DISEASES AND DISORDERS” (CuraSen Therapeutics, Inc., priority 2018, published 2021).

The subject of the series is Ts65Dn mice. The following applies: increasing brain NE levels.

Take `N[C@H](C(=O)O)[C@H](O)c1ccc(O)c(O)c1` [L-DOPS, L-threo-3,4-dihydroxyphenylserine]: the contextual learning result is given as “restored contextual learning”.
